From ChEMBL document CHEMBL5143710, “Design and synthesis of unprecedented 9- and 10-membered cyclonucleosides with PRMT5 inhibitory activity” (Bioorg Med Chem, 2022)

Assay: Inhibition of full-length (FL)-PRMT5:MEP50 enzyme complex (unknown origin) expressed in Sf21 cells assessed as reduction in methylation activity using the N-terminus of H4 histone derived substrate peptide H4R3(Me1) by PRMT5:MEP50 biochemical assay
Set-up: species or system Homo sapiens

IC50 [µM]	Compound
1	Nc1ncnc2c1nc1n2[C@@H]2O[C@@H]([C@@H](O)[C@H]2O)[C@@H](c2ccc(Cl)cc2)OCCO1
5.7	Nc1ncnc2c1nc1n2[C@@H]2O[C@@H]([C@@H](O)[C@H]2O)[C@@H](c2ccc(F)c(F)c2)CCN1
